Data from patent US20250388565A1, “ESTROGEN RECEPTOR ALPHA DEGRADERS AND METHODS OF USE THEREOF” (Relay Therapeutics, Inc., priority 2022, published 2025).

The compounds below were run against T1, ERα protein (HiBiT-tagged) in ESR1_HiBiT KI MCF7 cells (Homo sapiens, UniProt P03372) (assay: Nano Glo HiBiT Lytic Degradation Assay). Details: 6 hours with compound, 14-point dose response 1:3, bell-shape curve fit, half-maximal effect of first Hill model, read-out: MCF7 ESR1 HiBiT - (DC50).
T1 sequence (P03372 1-595): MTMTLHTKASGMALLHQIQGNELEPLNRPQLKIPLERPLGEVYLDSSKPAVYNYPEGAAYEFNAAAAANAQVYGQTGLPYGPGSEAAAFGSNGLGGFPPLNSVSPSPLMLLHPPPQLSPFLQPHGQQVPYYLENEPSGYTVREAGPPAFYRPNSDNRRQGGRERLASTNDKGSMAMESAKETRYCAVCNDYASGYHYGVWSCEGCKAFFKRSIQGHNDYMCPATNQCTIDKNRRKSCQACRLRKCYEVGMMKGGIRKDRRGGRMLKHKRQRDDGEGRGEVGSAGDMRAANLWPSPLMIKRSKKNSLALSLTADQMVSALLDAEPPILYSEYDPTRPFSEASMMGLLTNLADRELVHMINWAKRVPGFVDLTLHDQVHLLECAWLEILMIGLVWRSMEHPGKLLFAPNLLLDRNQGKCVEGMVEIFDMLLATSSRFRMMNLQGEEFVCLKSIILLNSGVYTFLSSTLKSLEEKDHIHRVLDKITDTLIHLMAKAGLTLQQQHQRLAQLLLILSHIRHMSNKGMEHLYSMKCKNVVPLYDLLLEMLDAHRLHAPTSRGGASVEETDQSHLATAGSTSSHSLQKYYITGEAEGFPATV
Assay type: cell-based
Method in brief: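 Lytic Nano-Glo HiBiT luminescence quantified ERα remaining after a 6 h, 37° C compound exposure of MCF7 cells carrying endogenous HiBiT-tagged ESR1. Dosing used 14 threefold dilutions from a 10 mM DMSO stock (0.1% DMSO final), run in duplicate. Signals were corrected for cell-free background and expressed relative to DMSO, and DC50 came from a bell-shaped curve fit (first Hill model half-maximum).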

Row | SMILES | DC50
1 | O=C1CCC(c2ccc3c(c2)C[C@@H](N2CCN(CC4CCN(c5ccc([C@@H]6c7ccc(O)cc7CC[C@@H]6c6ccccc6)cc5)CC4)CC2)CC3)C(=O)N1 (single isomer, unassigned) [Compound I-422] | 141 nM
2 | O=C1CCC(c2ccc3c(c2)C[C@H](N2CCN(CC4CCN(c5ccc([C@@H]6c7ccc(O)cc7CC[C@@H]6c6ccccc6)cc5)CC4)CC2)CC3)C(=O)N1 (single isomer, unassigned) [Compound I-423] | ≥ 10000 nM
3 | O=C1CCC(N2Cc3c(ccc(N4CCN(CC5CCN(c6ccc([C@@H]7c8ccc(O)cc8CC[C@@H]7c7ccccc7)cc6)CC5)CC4)c3F)C2=O)C(=O)N1 (single isomer, unassigned) [II-16] | 2 nM
4 | O=C1CC[C@H](N2Cc3cc(N4CCC5(CCN(CC6CCN(c7ccc([C@H]8c9ccc(O)cc9CC[C@H]8c8ccccc8)cc7)CC6)CC5)CC4)ccc3C2=O)C(=O)N1 (single isomer, unassigned) [II-18] | ≥ 10000 nM
5 | O=C1CCC(N2Cc3cc(N4CCN(CC5CCN(c6ccc([C@@H]7c8ccc(O)cc8CC[C@@H]7c7ccccc7)cc6)CC5)CC4)c(F)cc3C2=O)C(=O)N1 (single isomer, unassigned) [II-19] | ≥ 10000 nM
6 | O=C1CC[C@H](N2Cc3cc(N4CCN(CC5CCN(c6ccc([C@@H]7c8ccc(O)cc8CC[C@@H]7c7ccccc7F)cc6)CC5)CC4)ccc3C2=O)C(=O)N1 (single isomer, unassigned) [II-24] | 245 nM
7 | O=C1CC[C@H](N2Cc3cc(N4CCN(CC5CCN(c6ccc([C@H]7c8ccc(O)cc8CC[C@H]7c7ccccc7F)cc6)CC5)CC4)ccc3C2=O)C(=O)N1 (single isomer, unassigned) [II-25] | 1.17 nM
8 | O=C1CC[C@H](N2Cc3cc(N4CCN(CC5CCN(c6ccc([C@@H]7c8ccc(O)cc8CC[C@@H]7c7cccc(F)c7)cc6)CC5)CC4)ccc3C2=O)C(=O)N1 (single isomer, unassigned) [II-26] | ≥ 10000 nM
9 | O=C1CC[C@H](N2Cc3cc(N4CCN(CC5CCN(c6ccc([C@H]7c8ccc(O)cc8CC[C@H]7c7cccc(F)c7)cc6)CC5)CC4)ccc3C2=O)C(=O)N1 (single isomer, unassigned) [II-27] | 0.82 nM
10 | Cc1cccc([C@H]2CCc3cc(O)ccc3[C@H]2c2ccc(N3CCC(CN4CCN(c5ccc6c(c5)CN([C@H]5CCC(=O)NC5=O)C6=O)CC4)CC3)cc2)c1 (single isomer, unassigned) [II-28] | 20 nM
11 | Cc1cccc([C@@H]2CCc3cc(O)ccc3[C@@H]2c2ccc(N3CCC(CN4CCN(c5ccc6c(c5)CN([C@H]5CCC(=O)NC5=O)C6=O)CC4)CC3)cc2)c1 (single isomer, unassigned) [II-29] | 1.24 nM
12 | Cc1ccccc1[C@H]1CCc2cc(O)ccc2[C@H]1c1ccc(N2CCC(CN3CCN(c4ccc5c(c4)CN([C@H]4CCC(=O)NC4=O)C5=O)CC3)CC2)cc1 (single isomer, unassigned) [II-34] | 40 nM
13 | Cc1ccccc1[C@@H]1CCc2cc(O)ccc2[C@@H]1c1ccc(N2CCC(CN3CCN(c4ccc5c(c4)CN([C@H]4CCC(=O)NC4=O)C5=O)CC3)CC2)cc1 (single isomer, unassigned) [II-35] | 0.34 nM
14 | Cc1ccc([C@H]2CCc3cc(O)ccc3[C@H]2c2ccc(N3CCC(CN4CCN(c5ccc6c(c5)CN([C@H]5CCC(=O)NC5=O)C6=O)CC4)CC3)cc2)cc1 (single isomer, unassigned) [II-36] | 0.93 nM
15 | Cc1ccc([C@@H]2CCc3cc(O)ccc3[C@@H]2c2ccc(N3CCC(CN4CCN(c5ccc6c(c5)CN([C@H]5CCC(=O)NC5=O)C6=O)CC4)CC3)cc2)cc1 (single isomer, unassigned) [II-37] | 46 nM
16 | O=C1CCC(N2Cc3cc(N4CCN(CC5CCN(c6ccc([C@@H]7c8ccc(O)cc8CC[C@@H]7c7ccccc7)cc6)CC5)CC4)c(F)cc3C2=O)C(=O)N1 (single isomer, unassigned) [II-38] | 1 nM
17 | O=C1CC[C@H](N2Cc3cc(N4CCN(CC5CCN(c6ccc([C@@H]7c8ccc(O)cc8CC[C@@H]7c7ccc(C(F)(F)F)cc7)cc6)CC5)CC4)ccc3C2=O)C(=O)N1 (single isomer, unassigned) [II-40] | ≥ 10000 nM

The next lines start with the values.

Row | DC50 | SMILES
18 | 2 nM | C[C@H]1CN(c2ccc3c(c2)CN([C@H]2CCC(=O)NC2=O)C3=O)CCN1CC1CCN(c2ccc([C@@H]3c4ccc(O)cc4CC[C@@H]3c3ccccc3)cc2)CC1 (single isomer, unassigned) [II-1]
19 | 6 nM | C[C@@H]1CN(CC2CCN(c3ccc([C@@H]4c5ccc(O)cc5CC[C@@H]4c4ccccc4)cc3)CC2)CCN1c1ccc2c(c1)CN([C@H]1CCC(=O)NC1=O)C2=O (single isomer, unassigned) [II-3]
20 | 1140 nM | C[C@@H]1CN(CC2CCN(c3ccc([C@H]4c5ccc(O)cc5CC[C@H]4c4ccccc4)cc3)CC2)CCN1c1ccc2c(c1)CN([C@H]1CCC(=O)NC1=O)C2=O (single isomer, unassigned) [II-4]
21 | 2 nM | O=C1CC[C@H](N2Cc3cc(N4C[C@H]5C[C@@H]4CN5CC4CCN(c5ccc([C@@H]6c7ccc(O)cc7CC[C@@H]6c6ccccc6)cc5)CC4)ccc3C2=O)C(=O)N1 (single isomer, unassigned) [II-5]
22 | ≥ 10000 nM | O=C1CC[C@H](N2Cc3cc(N4C[C@H]5C[C@@H]4CN5CC4CCN(c5ccc([C@H]6c7ccc(O)cc7CC[C@H]6c6ccccc6)cc5)CC4)ccc3C2=O)C(=O)N1 (single isomer, unassigned) [II-6]
23 | 21 nM | CN(CC1CCN(c2ccc([C@@H]3c4ccc(O)cc4CC[C@@H]3c3ccccc3)cc2)CC1)C1CN(c2ccc3c(c2)CN(C2CCC(=O)NC2=O)C3=O)C1 (single isomer, unassigned) [II-9]
24 | 5 nM | C[C@H]1CN(CC2CCN(c3ccc([C@@H]4c5ccc(O)cc5CC[C@@H]4c4ccccc4)cc3)CC2)CCN1c1ccc2c(c1)CN([C@H]1CCC(=O)NC1=O)C2=O (single isomer, unassigned) [II-10]
25 | ≥ 10000 nM | C[C@H]1CN(c2ccc3c(c2)CN([C@H]2CCC(=O)NC2=O)C3=O)CCN1CC1CCN(c2ccc([C@H]3c4ccc(O)cc4CC[C@H]3c3ccccc3)cc2)CC1 (single isomer, unassigned) [II-11]
26 | ≥ 10000 nM | C[C@H]1CN(CC2CCN(c3ccc([C@H]4c5ccc(O)cc5CC[C@H]4c4ccccc4)cc3)CC2)CCN1c1ccc2c(c1)CN([C@H]1CCC(=O)NC1=O)C2=O (single isomer, unassigned) [II-12]
27 | 18 nM | O=C1CC[C@H](N2Cc3cc(N4CCN(C[C@H]5CCN(c6ccc([C@@H]7c8ccc(O)cc8CC[C@@H]7c7ccccc7)cc6)C5)CC4)ccc3C2=O)C(=O)N1 (single isomer, unassigned) [II-13]
28 | ≥ 10000 nM | CN(CC1CCN(c2ccc([C@H]3c4ccc(O)cc4CC[C@H]3c3ccccc3)cc2)CC1)C1CN(c2ccc3c(c2)CN(C2CCC(=O)NC2=O)C3=O)C1 (single isomer, unassigned) [II-14]
29 | ≥ 10000 nM | C[C@@H]1CN(c2ccc3c(c2)CN([C@H]2CCC(=O)NC2=O)C3=O)CCN1CC1CCN(c2ccc([C@H]3c4ccc(O)cc4CC[C@H]3c3ccccc3)cc2)CC1 (single isomer, unassigned) [II-15]
30 | ≥ 10000 nM | O=C1CC[C@H](N2Cc3cc(N4CCN(C[C@@H]5CCCN(c6ccc([C@@H]7c8ccc(O)cc8CC[C@@H]7c7ccccc7)cc6)C5)CC4)ccc3C2=O)C(=O)N1 (single isomer, unassigned) [II-20]
31 | 173 nM | O=C1CC[C@H](N2Cc3cc(N4CCN(C[C@@H]5CCCN(c6ccc([C@H]7c8ccc(O)cc8CC[C@H]7c7ccccc7)cc6)C5)CC4)ccc3C2=O)C(=O)N1 (single isomer, unassigned) [II-21]
32 | 5 nM | O=C1CC[C@H](N2Cc3cc(N4CCN(C[C@H]5CCCN(c6ccc([C@@H]7c8ccc(O)cc8CC[C@@H]7c7ccccc7)cc6)C5)CC4)ccc3C2=O)C(=O)N1 (single isomer, unassigned) [II-22]
33 | ≥ 10000 nM | O=C1CC[C@H](N2Cc3cc(N4CCN(C[C@H]5CCCN(c6ccc([C@H]7c8ccc(O)cc8CC[C@H]7c7ccccc7)cc6)C5)CC4)ccc3C2=O)C(=O)N1 (single isomer, unassigned) [II-23]
34 | ≥ 10000 nM | O=C1CC[C@H](N2Cc3cc(N4CCN(C[C@@H]5CCN(c6ccc([C@@H]7c8ccc(O)cc8CC[C@@H]7c7ccccc7)cc6)C5)CC4)ccc3C2=O)C(=O)N1 (single isomer, unassigned) [II-32]
35 | 2 nM | O=C1CC[C@H](N2Cc3cc(N4CCN(C[C@@H]5CCN(c6ccc([C@H]7c8ccc(O)cc8CC[C@H]7c7ccccc7)cc6)C5)CC4)ccc3C2=O)C(=O)N1 (single isomer, unassigned) [II-33]
36 | ≥ 10000 nM | O=C1CCC(N2Cc3cc(N4CC5(CN(CC6CCN(c7ccc([C@@H]8c9ccc(O)cc9CC[C@@H]8c8ccccc8)cc7)CC6)C5)C4)ccc3C2=O)C(=O)N1 (single isomer, unassigned) [II-39]
